Data published in patent US20230279025A1, “KRAS G12D INHIBITORS” (Mirati Therapeutics, Inc., priority 2020, published 2023).

Legend:
[1] = target: T1, KRas G12D (Homo sapiens (Human), UniProt P01116, G12D); assay: KRas G12D Surface Plasmon Resonance (SPR) Binding Assay; settings: Biacore T200, immobilized biotinylated KRAS protein, 1:1 binding model
Target sequence in this assay (P01116-2 other isoform, or with tags, fused parts or gaps G12D): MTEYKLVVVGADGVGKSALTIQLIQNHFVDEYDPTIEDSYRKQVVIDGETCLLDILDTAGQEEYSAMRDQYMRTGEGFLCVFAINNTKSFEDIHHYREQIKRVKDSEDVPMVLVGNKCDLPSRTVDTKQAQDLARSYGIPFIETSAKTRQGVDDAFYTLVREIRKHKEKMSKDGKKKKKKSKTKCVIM

[2] = target: T1, KRas G12D; assay: KRas G12D Binding Assay (TR-FRET displacement of Cy5 labelled tracer); settings: GDP-loaded KRAS G12D (amino acids 1:169), 60 minute incubation at 22° C.
Protocol: After a 60 minute incubation at 22° C., the reaction was measured using a PerkinElmer EnVision multimode plate reader via TR-FRET dual wavelength detection, and the percent of control (POC) calculated using a ratiometric emission factor. […] The POC values were fit to a 4-parameter logistic curve and the IC50 value was determined as the concentration where the curve crosses 50 POC.
ND stands for “not determined.”
Target sequence in this assay (P01116 other isoform, or with tags, fused parts or gaps G12D): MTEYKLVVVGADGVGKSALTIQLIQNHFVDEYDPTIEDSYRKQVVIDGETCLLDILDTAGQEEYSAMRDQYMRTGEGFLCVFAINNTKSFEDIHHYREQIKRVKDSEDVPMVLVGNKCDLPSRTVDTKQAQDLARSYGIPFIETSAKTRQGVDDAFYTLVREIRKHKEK

[3] = system: KRas G12D-mediated phosphorylation of ERK in AGS cells (ATCC CRL-1739) expressing G12D; assay: Inhibition of KRas G12D-mediated Phosphorylation of ERK in AGS cells; assay type: cell-based; settings: Homo sapiens; phospho-ERK(Thr202/Tyr204) normalized to GAPDH, AGS cells, 3 hours; read-out: IC50
Protocol: Cells were plated in tissue culture treated 96 well plates at a density of 40,000 cells/well and allowed to attach for 12-14 hours. Diluted compounds were then added in a final concentration of 0.5% DMSO. After 3 hours, the medium was removed, 150 μL of 4.0% formaldehyde was added and the plates incubated at room temperature for 20 minutes. The plates were washed with PBS, and permeabilized with 150 μL of ice cold 100% methanol for 10 minutes. Non-specific antibody binding to the plates was blocked using […] Licor blocking buffer (Li-Cor Biotechnology, Lincoln Nebr.) for 1 hour at room temperature.
The amount of phospho-ERK was determined using an antibody specific for the phosphorylated form of ERK and compared to the amount of GAPDH. Primary antibodies used for the detection were added as follows: Phospho-ERK(Cell Signaling cs-9101) diluted 1:500 and GAPDH(Millipore MAB374) diluted 1:5000 in Licor block+0.05% Tween 20. The plates were incubated for 2 hours at room temperature. The plates were washed with PBS+0.05% Tween 20.
Secondary antibodies used to visualize primary antibodies were added as follows: Anti-rabbit-680 diluted 1:1000 and Anti-mouse-800 diluted 1:1000 both in Licor block+0.05% TweeN20, and were incubated for 1 hour at room temperature. The plates were washed with PBS +0.05% Tween 20. A 100 μL aliquot of PBS was added to each well and the plates were read on a Li-Cor Odyssey CLX plate reader.

[4] = Whole Blood Stability (WBS), human whole blood; assay type: in vitro ADME
Protocol: Compounds (2 μM) were incubated at 37° C. for 0, 10, 30, 60, and 120 min in a 1:1 (v/v) blood and PBS, pH 7.4. Diluted blood was preincubated for 15 min at 37° C. before the reactions were initiated with the dosing of the compound. At the end of incubation, the same volume of water was mixed with the spiked blood samples, and then stop solution (200 ng/mL tolbutamide and 200 ng/mL labetalol in MeOH) was added to precipitate protein. Mixed thoroughly. Samples were centrifuged, and supernatants were analyzed by LC-MS/MS.

SMILES | Kd [1] | IC50 [2] | IC50 [3] | % remaining in human whole blood ([4]; time point 0 min) | % remaining in human whole blood ([4]; time point 10 min) | % remaining in human whole blood ([4]; time point 30 min) | % remaining in human whole blood ([4]; time point 60 min) | % remaining in human whole blood ([4]; time point 120 min)
N#CC[C@@H]1C[C@@H]2CN(c3nc(OC[C@@]45CCCN4C[C@H](F)C5)nc4c(F)c(-c5cc(O)cc6ccccc56)ncc34)C[C@H]1N2 (racemic) [Example 339, 2-((1R,5S,6S)-3-(8-fluoro-2-((2-fluorotetrahydro-1H-pyrrolizin-7a(5H)-yl)methoxy)-7-(3-hydroxynaphthalen-1-yl)pyrido[4,3-d]pyrimidin-4-yl)-3,8-diazabicyclo[3.2.1]octan-6-yl)acetonitrile (racemic, trans)] | 21.6 nM | 21 nM | 8.66 µM | – | – | – | – | –
C#Cc1c(F)ccc2cc(O)cc(-c3ncc4c(N5C[C@H]6CC[C@@H](C5)N6C(=O)OCOC(=O)CCCCCCCCC)nc(OC[C@@]56CCCN5C[C@H](F)C6)nc4c3F)c12 [Example 471, (Decanoyloxy)methyl (1R,5S)-3-(7-(8-ethynyl-7-fluoro-3-hydroxynaphthalen-1-yl)-8-fluoro-2-(((2R,7aS)-2-fluorotetrahydro-1H-pyrrolizin-7a(5H)-yl)methoxy)pyrido[4,3-d]pyrimidin-4-yl)-3,8-diazabicyclo[3.2.1]octane-8-carboxylate] | – | – | – | 100% | 105% | 77% | 51% | 31%
